Assay results reported in patent US5696138A, “Urea derivatives and their use” (priority 1993, dated 1997).

Columns and labels:
BK channel [1] = target: BK channel (Bos taurus, UniProt Q28204); experiment: Single channel experiments, cultured bovine aortic smooth muscle cells; assay type: cell-based
Description: (§1) All experiments were performed with patch-clamp technique (Hamill et al., Pflugers Arch. 391, 85-100 (1981)). The ion composition of the internal solution was (in mM) 140 KCl, 1 CaCl2, 1 MgCl2, 2 EGTA, 10 HEPES and the external solution contained 140 NaCl, 4 KCl, 2 CaCl2, 1 MgCl2 and 10 HEPES.
The BK channels were also activated by N-(3-(trifluoromethyl)phenyl)-N'-(2-hydroxy-5-chlorophenyl) urea and N-phenyl-N'-(2-hydroxy-5-chlorophenyl) urea at concentrations equal or greater than 3 μM and by N-(3-(trifluoromethyl)phenyl)-N'-(2-hydroxy-5-(trifluoromethyl)phenyl) urea at concentrations greater than 10 μM.

[2] = test system: acetylcholine-contracted guinea-pig ileum; experiment: Guinea-pig ileum experiment (relaxation of acetylcholine-contracted ileum); conditions: 3-30 μM; ileum precontracted with acetylcholine 0.015-5.0 μM
Description: The compound, N-(3-(trifluoromethyl)phenyl)-N'-(2-hydroxy-5-chlorophenyl) urea, has been studied for its ability to relax acetylcholine-contracted guinea-pig ileum. The smooth muscle cells of the ileum express many BK channels and the model predicts relaxing effects on the gastrointestinal or urogenital tracts.
Method: Ileum from guinea-pigs are isolated and mounted in an isometric contraction chamber. It is bathed in a physiological Krebs solution at 98° F. The ileum is precontracted with increasing concentrations of acetylcholine (0.015-5.0 μM). The contractions are reversed by including the compound in the bathing solution.

BK currents = BK currents (Bos taurus, UniProt Q28204); experiment: Whole cell recordings (patch-clamp, voltage clamp) of membrane currents in calf aortic smooth muscle cells; assay type: cell-based; conditions: 1-10 μM in the bath
Description: as §1
The membrane currents of calf aortic smooth muscle cells were determined in whole-cell recordings using voltage clamp mode (HEKA EPC-9 patch-clamp amplifier).

[3] = test system: cocaine induced hypermotility; experiment: Cocaine motility test; assay type: in vivo; conditions: 10-30 mg/kg i.p. 15 min before 25 mg/kg cocaine; female NMRI mice; motility over 120 min
Description: The compound, N-(3-(trifluoromethyl)phenyl)-N'-(2-hydroxy-5-chlorophenyl) urea, has been studied in the cocaine motility test. Cocaine induces hypermotility due to an inhibition of dopamine reuptake. The test is recognized as a test predicting anti-psychotic activity.
Method: Two female NMRI mice (20-25 g) are placed in each test box (normal transparent plexiglas cage, w, l, h=21×39×19 cm) in the test room for at least 16 hours with food and water ad libitum before the test in order for the animals to habituate to the situation. The test compound is administered i.p. 15 min before saline or 25 mg/kg cocaine jip. to 32 mice (16 boxes) per dose. Food and water are withdrawn, and the motility is measured as the number of interrupted infrared photo-beams (8 per box placed 5 cm apart and 3 cm over the bottom of the cage) for the next 120 min.

BK channel [4] = experiment: Single channel experiments, inside-out patches of human coronary artery smooth muscle cell membrane; assay type: cell-based; conditions: 1-10 μM
Description: as §1
In inside-out patches of human coronary artery smooth muscle cell membrane single BK channels were activated by for example N-(3-(trifluoromethyl)phenyl)-N'-(2-hydroxy-5-chlorophenyl) urea (1-10 μM).

Chain of BK currents (Q28067 whole entry): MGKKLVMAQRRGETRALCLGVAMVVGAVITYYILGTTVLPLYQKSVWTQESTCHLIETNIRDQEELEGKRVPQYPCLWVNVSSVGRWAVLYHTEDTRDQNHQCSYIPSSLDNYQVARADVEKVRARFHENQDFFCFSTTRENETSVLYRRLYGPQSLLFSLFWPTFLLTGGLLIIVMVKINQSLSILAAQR
Chain of BK currents (Q28204 whole entry): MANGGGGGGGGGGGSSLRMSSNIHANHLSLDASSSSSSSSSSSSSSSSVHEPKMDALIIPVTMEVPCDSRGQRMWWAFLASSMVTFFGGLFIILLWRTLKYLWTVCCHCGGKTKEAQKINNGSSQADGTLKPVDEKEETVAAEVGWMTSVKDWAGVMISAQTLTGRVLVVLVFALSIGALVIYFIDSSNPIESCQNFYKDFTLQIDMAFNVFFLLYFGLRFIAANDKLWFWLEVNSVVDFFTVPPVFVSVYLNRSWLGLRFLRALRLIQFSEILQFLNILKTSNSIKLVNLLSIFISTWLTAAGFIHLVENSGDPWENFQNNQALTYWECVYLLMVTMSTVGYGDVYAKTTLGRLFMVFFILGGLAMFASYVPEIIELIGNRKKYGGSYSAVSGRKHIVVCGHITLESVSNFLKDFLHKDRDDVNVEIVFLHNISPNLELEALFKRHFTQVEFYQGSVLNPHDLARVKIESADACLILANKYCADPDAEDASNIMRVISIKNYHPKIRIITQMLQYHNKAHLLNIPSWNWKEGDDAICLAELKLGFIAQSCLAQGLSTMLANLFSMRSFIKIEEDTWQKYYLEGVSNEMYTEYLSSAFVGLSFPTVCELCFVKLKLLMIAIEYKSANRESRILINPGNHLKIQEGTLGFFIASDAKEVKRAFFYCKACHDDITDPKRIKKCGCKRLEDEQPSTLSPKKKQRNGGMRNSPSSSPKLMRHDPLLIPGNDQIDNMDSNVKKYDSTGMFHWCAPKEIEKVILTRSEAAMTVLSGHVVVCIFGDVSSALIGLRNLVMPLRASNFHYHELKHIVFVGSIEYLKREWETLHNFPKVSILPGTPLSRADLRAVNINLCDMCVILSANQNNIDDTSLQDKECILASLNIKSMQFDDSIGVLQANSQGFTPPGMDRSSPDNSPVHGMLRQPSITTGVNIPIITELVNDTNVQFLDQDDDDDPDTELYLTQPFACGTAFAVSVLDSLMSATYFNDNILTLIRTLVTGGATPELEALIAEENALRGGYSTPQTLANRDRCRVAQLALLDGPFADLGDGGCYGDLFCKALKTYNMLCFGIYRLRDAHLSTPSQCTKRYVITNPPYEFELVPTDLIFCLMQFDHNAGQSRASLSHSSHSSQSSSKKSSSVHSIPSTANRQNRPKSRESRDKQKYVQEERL
Chain of BK channel (Bos taurus, UniProt Q28204) (Q28204 whole entry): as above
Chain of BK channel (Bos taurus, UniProt Q28204) (Q28067 whole entry partner): as the sequence (Q28067 whole entry) above

SMILES | concentrations at which the BK channels were activated (BK channel [1]) | relaxation of acetylcholine-contracted guinea-pig ileum [2] | activation of BK currents (blockable by charybdotoxin) (BK currents) | increase of the outward current (BK currents) | shift of the activation curve towards negative membrane potentials (BK currents) | antagonism of cocaine induced hypermotility [3] | activation of single BK channels (BK channel [4]) | increase of the open probability of the BK channel (BK channel [4]) | activation of the BK channel (BK channel [1]; 1 μM)
O=C(Nc1cccc(C(F)(F)F)c1)Nc1cc(C(F)(F)F)ccc1O [N-(3-(trifluoromethyl)phenyl)-N'-(2-hydroxy-5-(trifluoromethyl)phenyl) urea] | greater than 10 μM | – | – | – | – | – | – | – | –
O=C(Nc1cccc(C(F)(F)F)c1)Nc1cc(Cl)ccc1O [N-(3-(trifluoromethyl)phenyl)-N'-(2-hydroxy-5-chlorophenyl) urea] | ≥ 3 µM | relaxes the ileum in a dose-dependent way | specifically activated BK currents | up to 10 times | more than -60 mV | antagonizes cocaine induced hypermotility | activated | several hundred | significantly activated
O=C(Nc1ccccc1)Nc1cc(Cl)ccc1O [N-phenyl-N'-(2-hydroxy-5-chlorophenyl) urea] | ≥ 3 µM | – | – | – | – | – | – | – | –
